Data set [1] in a line: Pharmacokinetic evaluation of oral administration in mice (tizoxanide in blood by LC/MS/MS). The data set is classed as in vivo, ICR mice. The settings on record: in words; for conversion to the active form tizoxanide in vivo: after oral administration in mice; for Area Under concentration-time Curve (AUC) compared to nitazoxanide: oral administration in mice. Here is the method: Sample preparation: 32.57 μmol of a test compound was dissolved in 100 μL dimethyl sulfoxide (DMSO), with the addition of 10 mL 0.5% Carboxyl Methyl Cellulose Sodium (CMC-Na) solution, to prepare a sample at 3.257 μmol/mL.
The test compounds refer to the compounds prepared in Examples of the invention and the positive control compound nitazoxanide. The experiment was carried out in two batches, wherein the first hatch of test compounds were Compound 1, 2, 6, 7, 8, 9 and the positive control compound nitazoxanide; and the second batch of test compounds were Compound 3, 4, 5, 12, 14, 17, 18 and positive control compound nitazoxanide.
Experimental method: ICR mice (SPS grade, male, […]), purchased from Beijing Vital River Laboratory Animal Technology Co., Ltd., were grouped randomly depending on body weight, 3 mice for each group. Nitazoxanide and a test compound were intragastrically administered separately to each mouse at a dose of 10 mL/kg (i.e., 32.57 μmol/kg of corresponding drug to each mouse), wherein nitazoxanide was used as positive control, and 0.1 ml blood was taken from veins of Fundus Oculi at 0.08, 0.25, 0.5, 1, 2, 4, 6, 8 and 12 h after administration, placed in a Heparin Sodium-containing centrifuge tube, and centrifuged for 20 min (at a relative centrifugal force (RCF) of 3000 g). The plasma was taken and stored in a −20° C. refrigerator for further detection.
During the detection, 50 μL plasma was taken, with the addition of an internal standard solution (5000 ng/mL glipizide aqueous solution, 10 μL), and the addition of acetonitrile (200 μL), and then mixed well. The mixture was vortexed for 3 min, and centrifuged for 10 min (at a relative centrifugal force (RCF) of 8500 g). The supernatant (50 μL) was well mixed with water (50 μL), and 10 μL was drawn for LC/MS/MS analysis, so as to detect the blood concentration of tizoxanide. The results are shown in Table 1, Table 2, Table 3, Table 4, FIG. 1, and FIG. 2.

Data set [2] is described as follows: Pharmacokinetic evaluation of oral administration and intravenous injection in rats. The data set is classed as in vivo, SD rats. To be noted: rats; for MRT last: read-out: MRT(0-t). As to the method:
9 SD rats (SPF grade, male, 200±10 g), provided by Laboratory Animal Center of the Academy of Military Medical Sciences, were grouped randomly, 3 […] for each group.
[…]; The plasma was separated and stored in a −20° C. refrigerator for further detection.
(2) Oral administration group of Compound 3, a dose of 15 mg/kg (equivalent to a dose of 41 μmol/kg tizoxanide); […]; The plasma was separated and stored in a −20° C. refrigerator for further detection.
(3) Oral administration group of nitazoxanide: a dose of 12.5 mg/kg (equivalent to a dose of 41 μmol/kg tizoxanide); administration volume: 2 mL/200 g rat (preparation of a test solution: 10.96 mg nitazoxanide was weighed accurately and dissolved by adding 600 μL DMSO, and […] sterile water was added to prepare a clear solution at 1.25 mg/mL); after oral administration of nitazoxanide at 12.5 mg/kg in rats, blood was taken before administration and at 0.08, 0.25, 0.5, 1, 2, 4, 6, 8, 12 and 24 h after administration. The plasma was separated and stored in a −20° C. refrigerator for further detection.
Treatment of plasma sample: 100 μL plasma was taken, 300 μL acetonitrile solution containing internal standard (500 nmol/L a solution of tolbutamide in acetonitrile) was added, and then mixed well. The mixture was vortexed for 1 min, and centrifuged at 4° C. for 10 min (at a relative centrifugal force (RCF) of 14000 g). The supernatant was taken, and 20 μL was drawn for LC/MS/MS analysis, so as to detect the blood concentration of tizoxanide and the prototype drug.

Where [3] appears, read: Compound 3 in plasma, intravenous injection of Compound 3 (5 mg/kg).
The mark [4] stands for this setting: Compound 3 in plasma, oral administration of Compound 3 (15 mg/kg).
Setting [5] is: male, SD, rat, in vivo, Compound 3 in plasma, intravenous injection of Compound 3 (5 mg/kg).
Setting [6] is: male, SD, rat, in vivo, Compound 3 in plasma, oral administration of Compound 3 (15 mg/kg).
Setting [7] is: male, SD, rat, in vivo, intravenous injection of Compound 3 (5 mg/kg), read-out: plasma concentration of Compound 3.
Where [8] appears, read: male, SD, rat, in vivo, oral administration of Compound 3 (15 mg/kg), read-out: plasma concentration of Compound 3.

These results are taken from patent US10196411B2, “Tizoxanide phosphate and alkane sulfonate and pharmaceutical applications thereof” (priority 2014, dated 2019).

The structures appear in SMILES notation. Structures can show the parent of a compound that is named as a salt. Where two headings read alike, the source gives them in different places.

For orientation: melting point means the temperature of the solid-liquid transition. With `O=C(Nc1ncc([N+](=O)[O-])s1)c1ccccc1OP(=O)(O)O` [Compound 2, 2-(5-nitrothiazol-2-yl-carbamoyl)phenyl dihydrogen phosphate], the melting point fell in the range of 224 to 226 °C. Also, the “conversion to the active form tizoxanide in vivo” value (shortened to “conversion … in vivo”) in data set [1] is given as “relatively complete”.

With `CCOP(=O)(OCC)Oc1ccccc1C(=O)Nc1ncc([N+](=O)[O-])s1` [Compound 18, diethyl 2-(5-nitrothiazol-2-yl-carbamoyl)phenyl phosphate], in data set [1], the “conversion … in vivo” value is given as “relatively complete” and the “Area Under concentration-time Curve (AUC) compared to nitazoxanide” value is given as “obviously higher”.

As for `COP(=O)(OC)Oc1ccccc1C(=O)Nc1ncc([N+](=O)[O-])s1` [Compound 17, dimethyl 2-(5-nitrothiazol-2-yl-carbamoyl)phenyl phosphate], in data set [1], the “conversion … in vivo” value is “relatively complete” and the “Area Under concentration-time Curve (AUC) compared to nitazoxanide” value is given as “obviously higher”.

Turning to `CCCCS(=O)(=O)Oc1ccccc1C(=O)Nc1ncc([N+](=O)[O-])s1` [Compound 9, 2-(5-nitrothiazol-2-yl-carbamoyl)phenyl 1-butanesulfonate], the melting point lay within 142 to 144 °C. In addition, in data set [1], the “conversion … in vivo” value was “relatively complete” and the “Area Under concentration-time Curve (AUC) compared to nitazoxanide” value is “much higher”.

The compound `CCS(=O)(=O)Oc1ccccc1C(=O)Nc1ncc([N+](=O)[O-])s1` [Compound 7, 2-(5-nitrothiazol-2-yl-carbamoyl)phenyl ethanesulfonate] registered a melting point of 178 to 180 °C. In data set [1], the “conversion … in vivo” value is recorded as “relatively complete” and the “Area Under concentration-time Curve (AUC) compared to nitazoxanide” value is recorded as “much higher”.

Compound `O=C(Nc1ncc([N+](=O)[O-])s1)c1ccccc1OP(=O)(OCc1ccccc1)OCc1ccccc1` [Compound 1, dibenzyl 2-(5-nitrothiazol-2-yl-carbamoyl)phenyl phosphate] returned a melting point of 122 to 123 °C. In addition, in data set [1], the “conversion … in vivo” value is recorded as “relatively complete” and the “Area Under concentration-time Curve (AUC) compared to nitazoxanide” value is listed as “slightly higher”.

With `CC(C)(C)OC(=O)NCCS(=O)(=O)Oc1ccccc1C(=O)Nc1ncc([N+](=O)[O-])s1`, the melting point was in the range of 164 to 166 °C.

A word on the AUC(0-inf): it is total exposure, with the tail of the curve extrapolated. A lower AUC(0-inf) goes with less exposure. Usually AUC(0-t) stands for exposure summed from dosing to a finite time, without extrapolation to infinity. One may read the Cmax as the maximum level reached in the sampled fluid or tissue. Broadly, the Tmax is the time at which the peak concentration occurs. Consider `O=C(Nc1ncc([N+](=O)[O-])s1)c1ccccc1OP(=O)(O)O` [Compound 3, 2-(5-nitrothiazol-2-yl-carbamoyl)phenyl hydrogen phosphate monosodium salt], for which, in data set [2] (setting [3]), the CLz/F is 17.2 ± 2.83 mL/min/kg and the t1/2z came out at 28.8 ± 16.8 min. In addition, in data set [2] (setting [4]), the CLz/F was found to be 1879.8 ± 783.8 mL/min/kg, the F is reported as 2.4% and the t1/2z came out at 100 ± 100 min. Also, in data set [2] (setting [5]), the AUC(0-inf) came out at 4920 ± 786 ng·h/mL, the exposure AUC(0-t) amounted to 4920 ± 786 ng·h/mL, the peak level (Cmax) was 26700 ± 6590 ng/mL and the MRT last stood at 15.6 ± 9 min. In addition, in data set [2] (setting [6]), the total exposure AUC(0-inf) was determined as 154 ± 76.3 ng·h/mL, the AUC(0-t) was 119 ± 50 ng·h/mL, the peak level (Cmax) was 100 ± 20 ng/mL and the Tmax was found to be 15 min. The MRT last in data set [2] (setting [6]) came to 73.2 ± 49.8 min. Further, the Vd/F in data set [2] (male, SD, rat, in vivo, Compound 3 in plasma, oral administration of Compound 3 (15 mg/kg), read-out: Vz/F) is 198 ± 118 L/kg. Also, in data set [2] (setting [7]), the concentration at 0.03 h stood at 26700 ± 6590 ng/mL, the concentration at 0.08 h is 13300 ± 1390 ng/mL, the concentration at 0.25 h was 3970 ± 1880 ng/mL and the concentration at 0.5 h was determined as 1730 ± 1250 ng/mL. For the same compound, the concentration at 1 h in data set [2] (setting [7]) turned out to be 345 ± 316 ng/mL. Moreover, in data set [2] (male, SD, rat, in vivo, intravenous injection of Compound 3 (5 mg/kg), 2 h, read-out: plasma concentration of Compound 3), the concentration at 2 h was found to be 113 ± 83.4 ng/mL. For the same compound, in data set [2] (male, SD, rat, in vivo, intravenous injection of Compound 3 (5 mg/kg), 4 h, read-out: plasma concentration of Compound 3), the concentration at 4 h is 13.9 ± 1.9 ng/mL. In data set [2] (setting [8]), the concentration at 0.03 h was found to be 55.3 ± 2.1 ng/mL, the concentration at 0.08 h turned out to be 99.1 ± 22.1 ng/mL, the concentration at 0.25 h was determined as 71.1 ± 7.3 ng/mL and the concentration at 0.5 h was determined as 33 ± 3.2 ng/mL. Moreover, the concentration at 1 h in data set [2] (setting [8]) was determined as 24.4 ± 1.6 ng/mL. Besides, the “conversion to active form tizoxanide” value in data set [2] (oral administration or intravenous injection, in words) is listed as “quickly converted”.

Take `NCCS(=O)(=O)Oc1ccccc1C(=O)Nc1ncc([N+](=O)[O-])s1` [Compound 12, 2-(5-nitrothiazol-2-yl-carbamoyl)phenyl taurate hydrochloride]: in data set [1], the “conversion … in vivo” value is “relatively complete” and the “Area Under concentration-time Curve (AUC) compared to nitazoxanide” value is “much higher”.
